Experimental data taken from paper PMC6216040, “Repurposing of an old drug: In vitro and in vivo efficacies of buparvaquone against Echinococcus multilocularis” (International Journal for Parasitology: Drugs and Drug …, 2018).

Test system: E. multilocularis metacestodes
Assay: PGI-assay: drug-induced damage on in vitro cultured metacestodes (Pathogen Box screening cascade and EC50)
Format: cell-based, Echinococcus multilocularis
Conditions: for PGI release, % of the Tx-100 control, 5d / PGI release, % of the Tx-100 control, 12d: 10 µM, singlets; for PGI release, % of the Tx-100 control, 5d / PGI release, % of Tx-100 control, average, 5d: 5 days of incubation; for PGI release, % of the Tx-100 control, 12d / PGI release, % of Tx-100 control, average, 12d: 12 days of incubation
[1] = confirmatory screening at 10 µM in triplicates, values as % of Tx-100 control

Structure (SMILES) | PGI release, % of the Tx-100 control, 5d [%] | PGI release, % of the Tx-100 control, 12d [%] | further results
FC(F)(F)c1cc(NCCc2ccccc2)nc(-c2ccccn2)n1 [MMV659010] | 0.61 | 3.66 | –
Brc1cncc(-c2cc(NCCCn3ccnc3)nc(-c3ccccc3)n2)c1 [MMV661713] | -3.38 | -0.86 | –
Clc1cccc(C(c2ccc(CN3CCNCC3)cc2)n2ccnc2)c1 (centres unmarked) [MMV663250] | 0.31 | -0.31 | –
O=C(NCCN1CCCC1)c1cc(NCCCCN2CCC(F)(F)CC2)nc2ccc(Cl)cc12 [MMV667494] | -0.60 | -1.11 | –
Nc1ncc(-c2ccc(C(F)(F)F)nc2)cc1-c1ccc(C(F)(F)F)nc1 [MMV668727] | -0.66 | -0.51 | –
COc1ccc(OC)c(NCc2ccc3nc(N)nc(N)c3c2Cl)c1 [MMV675968] | -0.10 | 8.05 | –
CC(C)(C)c1ccc(N[C@@H]2CCCC[C@H]2NC(=O)c2ccco2)cc1 [MMV675969] | 1.02 | -2.49 | –
COc1ccc(-c2nn(C(C)C)c3ncnc(N)c23)cc1OC [MMV675993] | -5.16 | -3.42 | –
Clc1ccc(-n2cc(COc3ccnc4ccccc34)nn2)cc1 [MMV675994] | -6.67 | 46.84 | PGI release, % of Tx-100 control, average, 5d (1 µM, triplicates): -4.24%; PGI release, % of Tx-100 control, average, 12d (1 µM, triplicates): -12.79%; activity in the screen at 10 μM (confirmed in triplicates, >20% relative PGI release) (10 μM, 5 and 12 days): active; PGI release, % of Tx-100 control, average, 5d [1]: 26.02%; PGI release, % of Tx-100 control, average, 12d [1]: 73.87%
COc1ccc(N(CCc2cccc(C)n2)C(C)=O)cc1 [MMV675995] | 1.72 | 1.78 | –
COc1ccc(N(CCc2cccc(C)n2)C(=O)C2CCCCC2)cc1 [MMV675996] | 0.13 | -0.16 | –
N#CCN(CCCCN1CCN(c2ccc(F)cc2)CC1)C(=O)OCc1ccccc1 [MMV675997] | -0.27 | -1.46 | –
COc1ccc(C(=N)N)cc1-c1cn(-c2ccc(C(=N)N)cc2)nn1 [MMV675998] | -0.22 | 0.24 | –
O=C(Nc1c(O)cccc1-c1nc2c(C(=O)O)cccc2o1)c1cc(-c2ccccc2)on1 [MMV676008] | -0.73 | -0.73 | –
Clc1ccc(Cl)c(CO[C@H]2CCCC[C@@H]2n2ccnc2)c1 [MMV676048] | 1.62 | 0.30 | –
CS(=O)(=O)N1CCC(Cn2nc(Cc3cccc4ccccc34)c3c(N)ncnc32)CC1 [MMV676050] | 0.49 | 0.36 | –
COc1cc(NC(=O)Cc2nn(C)c(=O)c3ccccc23)ccc1Cl [MMV676053] | -2.85 | -1.21 | –
CC(C)(C)OC(=O)N1CCN(c2cc(-c3ccc(Oc4ccccc4)cc3)n[nH]2)CC1 [MMV676057] | -3.83 | 2.21 | –
CCCCc1ccc(NC(=O)Nc2ccc(O[C@H]3CCCC[C@@H]3N(C)c3ccccc3)c(F)c2)cc1 [MMV676063] | 2.73 | 76.51 | PGI release, % of Tx-100 control, average, 5d [1]: -1.39%; PGI release, % of Tx-100 control, average, 12d [1]: -1.33%
CC(=O)N(CCN(C(=O)c1ccc(F)cc1)c1ccccc1)c1ccccc1 [MMV676064] | -0.20 | 0.0545 | –

Structure (SMILES) | PGI release, % of the Tx-100 control, 5d [%] | PGI release, % of the Tx-100 control, 12d [%] | further results
Clc1cccc(CO[C@H]2CCc3ccccc3[C@@H]2n2ccnn2)c1 [MMV676159] | -0.04 | -0.65 | –
c1ccc(Oc2ccc(-c3cc(CN4CCOCC4)[nH]n3)cc2)cc1 [MMV676161] | -0.68 | -1.33 | –
O=C(Nc1ccccc1-c1nc2c(C(=O)O)cccc2o1)c1ccccc1 [MMV676162] | 0.15 | 0.13 | –
Nc1ncnc2c1c(Cc1cccc3ccccc13)nn2CC1CCNCC1 [MMV676182] | 0.88 | -0.92 | –
COC(=O)c1cccc2oc(-c3cccc(OC)c3NC(=O)c3cc(-c4ccccc4)on3)nc12 [MMV676186] | 1.00 | 13.03 | –
CC(C)C(Oc1cccc2ccccc12)C(=O)O (centres unmarked) [MMV676191] | -0.44 | -4.34 | –
O=C(c1ccc(F)cc1)N(CCNc1ccccc1)c1ccccc1 [MMV676204] | 0.89 | 22.26 | PGI release, % of Tx-100 control, average, 5d [1]: -0.89%; PGI release, % of Tx-100 control, average, 12d [1]: -0.80%
CN1CCN(c2nccc3nc(-c4ccc(F)c(F)c4)[nH]c23)CC1 [MMV676260] | 0.28 | 0.56 | –
C[C@H](C(N)=O)N1CCCC[C@H]1c1ccc(OCc2cccc(F)c2)cc1 [MMV676269] | 1.52 | 1.07 | –
C[C@H](C(N)=O)N1CCCC[C@@H]1c1ccc(OCc2cccc(F)c2)cc1 [MMV676270] | -0.98 | -0.91 | –
Cc1c[nH]c(CCNC(=O)c2cc(-c3ccc(Cl)cc3)cs2)n1 [MMV676350] | -0.41 | 1.56 | –
Nc1ncc(Br)cc1-c1nc2cc(Cl)cnc2[nH]1 [MMV676358] | 0.16 | -0.55 | –
Brc1c(-c2ccc3c(c2)OCO3)nc2ncccn12 [MMV676377] | 0.59 | -0.19 | –
COc1cccc(OCC(=O)c2ccc(Br)cc2)c1 [MMV676379] | -3.68 | -3.36 | –
CC(=O)Nc1ccc(NC(=O)c2cc(-c3cc(Cl)ccc3O)n[nH]2)cc1 [MMV676380] | -0.62 | -0.39 | –
Cn1ncc2c(N3CCOCC3)nc(NCCc3c[nH]c4ccccc34)nc21 [MMV676382] | 0.80 | -0.14 | –
CCC(Sc1nc2ccccc2o1)C(=O)Nc1nccs1 (centres unmarked) [MMV676383] | 0.61 | 4.85 | –
N#Cc1nc(-c2ccccc2F)oc1NCCc1ccccc1 [MMV676384] | 0.0223 | -0.18 | –
Cc1cccc(Cn2ccc(NC(=O)c3ccc4c(c3)OCO4)n2)c1 [MMV676386] | 0.18 | -0.91 | –
COc1cccc(-n2nnnc2S(=O)(=O)Cc2ccccc2)c1 [MMV676388] | 12.00 | 14.67 | –
